Among the data in patent US5079358A, “6H-pyrazolo-[4,5,1-d,e]acridin-6-one derivatives having anit-tumor activity” (Kyowa Hakko Kogyo Co., Ltd., priority 1988, dated 1992) are IC50, ILS and LD50 values, retold here.

≈ marks a conversion by molar mass, not a printed value.

Data set [1] deals with human cancer cells (HeLaS3). Kind of data set: Inhibitory effect on growth of human cancer cells (HeLaS3). It counts as cell-based. The note with it: Homo sapiens, HeLa S3, 72 hours at 37° C., Neutral Red staining, 550 nm, read-out: IC50. Here is the method: Inhibitory effect on growth of human cancer cells (HeLaS3):
HeLaS, cells were suspended in a medium comprising MEM medium (Nissui Pharmaceutical Co., Ltd.) and 2 mM glutamine (hereinafter referred to as Medium A) to a concentration of 3×10^4 cells/ml. The cell suspension thus prepared was put into wells of a 96-well microtiter plate in an amount of 0.1 ml/well. The cells on the plate were incubated in a CO2 -incubater at 37° C. for 20 hours, and 0.05 ml of a sample containing a test compound and appropriately diluted with Medium A was added to each well. The cells were further incubated in the CO2 -incubater at 37° C. for 72 hours. After the culture supernatant was removed, a medium comprising Medium A and 0.02% Neutral Red was added to the residue in an amount of 0.1 ml/well, followed by incubation at 37° C. for one hour in the CO2 -incubater, whereby the cells were stained. The culture supernatant was removed and the residue was washed once with physiological saline solution. The pigment was extracted with 0.001 N-HCl/30%-ethanol, and the absorbance was determined at 550 nm with a microplate reader. The absorbance determined for intact cells was compared with that for the cells treated with the test compound of a known concentration, and the concentration of the test compound for inhibiting 50% growth of the cells (IC50) was calculated.

In the next data set the test system is P388 ascites tumor. Kind of data set: Effect on P388 ascites tumor (increased life span). In kind it is in vivo. The note with it: P388, ip, intraperitoneal, 24 hours after implantation, male CDF1 mouse. As to the method:
Effect on P388 ascites tumor:
P388 tumor cells (10^6 cells) were implanted intraperitoneally into a DBA/2 mouse and the cells were collected from the ascitic fluid of the animal 7 days after the implantation. The cells were ashed once with sterilized physiological saline solution and then suspended in a sterilized physiological saline solution to prepare a cell suspension containing 5×10^6 cells/ml. The suspension (0.2 ml) was intraperitoneally inoculated into a male CDF1 mouse aged 6 weeks. A test compound was dissolved in physiological saline solution and intraperitoneally administered to the animal 24 hours after implantation of the tumor cells. One test group comprised 5 mice. The mean survival time (days) of a test group which received a test compound at a specified concentration was calculated as T from survival days of animals in the group. ON the other hand, the mean survival time (days) of the non-administered group (C) was obtained in the same manner, and the increased life span (ILS %) was calculated as [(T-C)/C]×100 (%).

Data set [2] is described as follows: Acute toxicity (LD50), single intravenous administration to male ddy mice. The conditions noted are these: mouse, in vivo, 14 days observation, Probit's method. Here is the method:
A test compound was administered intravenously once to male ddy mice. One test group comprised ten mice. […] LD50 was calculated from the death rate of each group in accordance with Probit's method.

As usually defined, the IC50 is the concentration needed to halve the response being measured. The ILS is how much longer treated animals lived than controls. Higher therefore signals a large benefit in survival. For `COc1cccc2c1c(=O)c1c(NCCCN)ccc3c(CNCCCN)nn2c31` [Compound 26, 5-(3-Aminopropyl)amino-2-(3-aminopropyl)aminomethyl-7-methoxy-6H-pyrazolo[4,5,1-d,e]acridin-6-one], the IC50 in data set [1] came out at 0.22 µg/mL (≈ 0.539 µM). For the same compound, the ILS at 25 mg/kg with P388 ascites tumor came out at 28%.
As usually defined, the LD50 is the dose expected to kill half of the subjects tested. With `NCCNCc1nn2c3cccc(O)c3c(=O)c3c(NCCN)ccc1c32` [Compound 28, 5-(2-Aminoethyl)amino-2-(2-aminoethyl)aminomethyl-7-hydroxy-6H-pyrazolo[4,5,1-d,e]acridin-6-one], in the data set with P388 ascites tumor, the ILS at 12.5 mg/kg is > 154%. Also, the LD50 at 336 h in data set [2] was 15.7 mg/kg.
As for `NCCCNCc1nn2c3cccc(O)c3c(=O)c3c(NCCCN)ccc1c32` [Compound 29, 5-(3-Aminopropyl)amino-2-(3-aminopropyl)aminomethyl-7-hydroxy-6H-pyrazolo[4,5,1-d,e]acridin-6-one], the IC50 in data set [1] came to 0.014 µg/mL (≈ 0.0355 µM). In addition, the ILS at 12.5 mg/kg with P388 ascites tumor was > 121%.
In the case of `NCCNCc1nn2c3cccc(O)c3c(=O)c3c(NCCNCCO)ccc1c32` [Compound 46, 2-(2-Aminoethyl)aminomethyl-7-hydroxy-5-[2-(2-hydroxyethylamino)ethyl]amino-6H-pyrazolo[4,5,1-d,e]acridin-6-one], the IC50 in data set [1] amounted to 0.003 µg/mL (≈ 0.00731 µM). Further, the ILS at 25 mg/kg with P388 ascites tumor is > 156%.
With `NCCNCCNc1ccc2c(CNCCN)nn3c4cccc(O)c4c(=O)c1c23` [Compound 48, 5-[2-(2-Aminoethylamino)ethyl]amino-2-(2-aminoethyl)aminomethyl-7-hydroxy-6H-pyrazolo[4,5,1-d,e]acridin-6-one], the IC50 in data set [1] was found to be 0.0026 µg/mL (≈ 0.00635 µM). In addition, in the data set on P388 ascites tumor (dose 50 mg/kg), the ILS at 50 mg/kg is > 200%.
With `CN(C)CCNc1ccc2c(CN(CCO)CCO)nn3c4cccc(O)c4c(=O)c1c23` [Compound 51, 2-Bis(2-hydroxyethyl)aminomethyl-5-(2-dimethylaminoethyl)amino-7-hydroxy-6H-pyrazolo[4,5,1-d,e]acridin-6-one], the ILS at 25 mg/kg in the data set with P388 ascites tumor is > 186%. The same compound came in with an LD50 at 336 h in data set [2] of 15.7 mg/kg.
Taken in the same sequence, the figures for `NCCNc1ccc2c(CN(CCO)CCO)nn3c4cccc(O)c4c(=O)c1c23` [Compound 53, 5-(2-Aminoethyl)amino-2-bis(2-hydroxyethyl)aminomethyl-7-hydroxy-6H-pyrazolo[4,5,1-d,e]acridin-6-one] were > 100% and 25 mg/kg.
On to `O=c1c2c(O)cccc2n2nc(CNCCN3CCOCC3)c3ccc(NCCN4CCOCC4)c1c32` [Compound 56, 7-Hydroxy-5-(2-morpholinoethyl)amino-2-(2-morpholinoethyl)aminomethyl-6H-pyrazolo[4,5,1-d,e]acridin-6-one], for which, in data set [1], the IC50 worked out at 0.26 µg/mL (≈ 0.513 µM). Besides, in the data set with P388 ascites tumor (dose 100 mg/kg), the ILS at 100 mg/kg amounted to 121%.
